The structures appear in SMILES notation. Converted amounts (≈) assume the structure as drawn. A value given as a limit tells only on which side of the number the result lay.

Drawing on ChEMBL document CHEMBL1124380, “Synthesis and cytostatic activity of geiparvarin analogues” (1989), this text covers IC50 for 17 compounds.

Common to all, as to assay type: functional
One experiment concerns CCRF-CEM. Nature of the experiment: Ability to inhibit human CEM tumor cell proliferation by 50%. The conditions noted are these: read-out: ID50 (the source's name).
The next experiment deals with FM3A. In words: Ability to inhibit murine FM3A tumor cell proliferation by 50%. To be noted: Mus musculus, read-out: ID50 (the source's name).
A further experiment has as its system H9. Nature of the experiment: Ability to inhibit human H9 tumor cell proliferation by 50%. The conditions noted are these: read-out: ID50 (the source's name).
For another experiment, the system named is L1210. Nature of the experiment: Ability to inhibit murine L1210 tumor cell proliferation by 50%. The conditions noted are these: Mus musculus, read-out: ID50 (the source's name).
A further experiment concerns MT4. Nature of the experiment: Ability to inhibit human MT-4 tumor cell proliferation by 50%. The conditions noted are these: read-out: ID50 (the source's name).
Experiment [1] can be described thus: Ability to inhibit human Molt/4F tumor cell proliferation by 50%. To be noted: read-out: ID50 (the source's name).
The next experiment deals with Raji. In words: Ability to inhibit human Raji tumor cell proliferation by 50%. To be noted: read-out: ID50 (the source's name).

On to `C/C(=C\COc1ccc2ccc(=O)oc2c1)C1=CC(=N)C2(CCCCC2)O1`, for which the IC50 in the experiment on CCRF-CEM amounted to 4.95 µg/mL (≈ 13.5 µM); in the experiment with FM3A it was 15.8 µg/mL (≈ 43.2 µM); in the experiment on H9 it was 14.2 µg/mL (≈ 38.9 µM); in the experiment with L1210 it was 4.05 µg/mL (≈ 11.1 µM); with MT4, 4.93 µg/mL (≈ 13.5 µM); in experiment [1], 20.5 µg/mL (≈ 56.1 µM). The IC50 in the experiment with Raji is 23.5 µg/mL (≈ 64.3 µM).
For the compound `CC(C)CC1=CC(=N)C(C)(C)O1.O=C(O)C(=O)O`, the IC50 in the experiment on CCRF-CEM is greater than 100 µg/mL; in the experiment with FM3A, 33.2 µg/mL; in the experiment with H9 it was greater than 100 µg/mL; in the experiment on L1210 it was greater than 100 µg/mL; in the experiment on MT4, greater than 100 µg/mL; in experiment [1], greater than 100 µg/mL. The IC50 with Raji is greater than 100 µg/mL.
As to `CC(C)CC1=CC(=N)C(C)(C)O1`, the IC50 in the experiment on CCRF-CEM is greater than 100 µg/mL; in the experiment with FM3A it was 33 µg/mL (≈ 197 µM); in the experiment with H9 it was greater than 100 µg/mL; in the experiment on L1210, greater than 100 µg/mL; with MT4 it was greater than 100 µg/mL; in experiment [1], greater than 100 µg/mL. The IC50 in the experiment on Raji was greater than 100 µg/mL.
With `CC1(C)OC(c2ccccc2)=CC1=N`, the IC50 is greater than 100 µg/mL with CCRF-CEM; 24.7 µg/mL (≈ 132 µM) with FM3A; greater than 100 µg/mL in the experiment with H9; 66.4 µg/mL (≈ 355 µM) with L1210; 76.2 µg/mL (≈ 407 µM) in the experiment with MT4; greater than 100 µg/mL in experiment [1]. For the same compound, the IC50 in the experiment with Raji is greater than 100 µg/mL.
`C/C(=C\COc1ccc2ccc(=O)oc2c1)C1=CC(=N)C(C)(C)O1`: the IC50 turned out to be 18.8 µg/mL (≈ 57.8 µM) in the experiment with CCRF-CEM; 20.7 µg/mL (≈ 63.6 µM) in the experiment with FM3A; 21.7 µg/mL (≈ 66.7 µM) in the experiment on H9; 18.4 µg/mL (≈ 56.6 µM) in the experiment on L1210; 8.77 µg/mL (≈ 27 µM) in the experiment on MT4; 25.8 µg/mL (≈ 79.3 µM) in experiment [1]. Further, the IC50 with Raji turned out to be 26 µg/mL (≈ 79.9 µM).
As to `COc1ccccc1C1=CC(=O)CO1`, the IC50 in the experiment on CCRF-CEM is greater than 100 µg/mL; in the experiment on FM3A, greater than 100 µg/mL; with H9, 66.3 µg/mL (≈ 349 µM); with L1210, greater than 100 µg/mL; in the experiment with MT4, 44.4 µg/mL (≈ 233 µM); in experiment [1], greater than 100 µg/mL. Further, in the experiment with Raji, the IC50 was greater than 100 µg/mL.
Take `COc1ccccc1C1=CC(=O)C(C)(C)O1`: the IC50 in the experiment with CCRF-CEM came out at 66.1 µg/mL (≈ 303 µM); in the experiment with FM3A, 31.7 µg/mL (≈ 145 µM); in the experiment on H9, 63.9 µg/mL (≈ 293 µM); in the experiment with L1210 it was 40.4 µg/mL (≈ 185 µM); with MT4, 30.4 µg/mL (≈ 139 µM); in experiment [1] it was 53.3 µg/mL (≈ 244 µM). For the same compound, in the experiment on Raji, the IC50 stood at 89.1 µg/mL (≈ 408 µM).
For `C/C(=C\CO)CC1=CC(=O)C(C)(C)O1`, the IC50 is 10.3 µg/mL (≈ 52.5 µM) in the experiment with CCRF-CEM; 23.3 µg/mL (≈ 119 µM) in the experiment on FM3A; 9.13 µg/mL (≈ 46.5 µM) in the experiment with H9; 15.8 µg/mL (≈ 80.5 µM) in the experiment on L1210; 3.05 µg/mL (≈ 15.5 µM) with MT4; 15.2 µg/mL (≈ 77.5 µM) in experiment [1]. For the same compound, in the experiment with Raji, the IC50 amounted to 16.6 µg/mL (≈ 84.6 µM).
Regarding `CCC1OC(/C(C)=C/COc2ccc3ccc(=O)oc3c2)=CC1=O` (centres undefined), the IC50 with CCRF-CEM amounted to 3.27 µg/mL (≈ 10 µM); with FM3A it was 17.2 µg/mL (≈ 52.7 µM); in the experiment with H9, 4.1 µg/mL (≈ 12.6 µM); in the experiment with L1210 it was 9.77 µg/mL (≈ 29.9 µM); in the experiment with MT4, 1.63 µg/mL (≈ 4.99 µM); in experiment [1], 2.84 µg/mL (≈ 8.7 µM). The IC50 with Raji is 2.43 µg/mL (≈ 7.45 µM).
For `C/C(=C\COc1ccc2ccc(=O)oc2c1)C1=CC(=O)C(C)(C)O1` [GEIPARVARIN], the IC50 in the experiment on CCRF-CEM is 2 µg/mL (≈ 6.13 µM); in the experiment on FM3A, 3.2 µg/mL (≈ 9.81 µM); in the experiment on H9 it was 1.97 µg/mL (≈ 6.04 µM); in the experiment on L1210 it was 2.07 µg/mL (≈ 6.34 µM); in the experiment with MT4, 0.32 µg/mL (≈ 0.981 µM); in experiment [1] it was 2.84 µg/mL (≈ 8.7 µM). Besides, the IC50 in the experiment on Raji worked out at 2.19 µg/mL (≈ 6.71 µM).
Consider `C/C(=C\COc1ccc2ccc(=O)oc2c1)C1=CC(=O)C(C)O1` (centres undefined), for which the IC50 came to 3.56 µg/mL (≈ 11.4 µM) with CCRF-CEM; 15.6 µg/mL (≈ 49.9 µM) in the experiment with FM3A; 2.91 µg/mL (≈ 9.32 µM) with H9; 7.05 µg/mL (≈ 22.6 µM) with L1210; 2.56 µg/mL (≈ 8.2 µM) in the experiment on MT4; 3.32 µg/mL (≈ 10.6 µM) in experiment [1]. Also, in the experiment on Raji, the IC50 was 10.4 µg/mL (≈ 33.3 µM).
For the compound `CCC1(C)OC(/C(C)=C/COc2ccc3ccc(=O)oc3c2)=CC1=O` (centres undefined), the IC50 in the experiment on CCRF-CEM is 2.49 µg/mL (≈ 7.32 µM); in the experiment on FM3A, 2.96 µg/mL (≈ 8.7 µM); in the experiment on H9, 2.15 µg/mL (≈ 6.32 µM); in the experiment with L1210, 2.05 µg/mL (≈ 6.02 µM); in the experiment with MT4 it was 0.53 µg/mL (≈ 1.56 µM); in experiment [1], 3.02 µg/mL (≈ 8.87 µM). In addition, the IC50 with Raji was 2.59 µg/mL (≈ 7.61 µM).
For the compound `CCCCCC1=CC(=N)C(C)(C)O1`, the IC50 was greater than 100 µg/mL in the experiment with CCRF-CEM; 24.2 µg/mL (≈ 133 µM) with FM3A; greater than 100 µg/mL in the experiment with H9; 98.3 µg/mL (≈ 542 µM) with L1210; greater than 100 µg/mL in the experiment with MT4; greater than 100 µg/mL in experiment [1]. For the same compound, in the experiment with Raji, the IC50 was greater than 100 µg/mL.
As for `C/C(=C\COc1ccc2ccc(=O)oc2c1)C1=CC(=O)C2(CCCCC2)O1`, the IC50 with CCRF-CEM came to 2.72 µg/mL (≈ 7.42 µM); in the experiment on FM3A, 6.61 µg/mL (≈ 18 µM); with H9, 2.08 µg/mL (≈ 5.68 µM); in the experiment on L1210 it was 1.82 µg/mL (≈ 4.97 µM); in the experiment on MT4 it was 2.1 µg/mL (≈ 5.73 µM); in experiment [1] it was 12.7 µg/mL (≈ 34.7 µM). Moreover, the IC50 with Raji was 5.43 µg/mL (≈ 14.8 µM).
In the case of `O=C1C=C(c2ccccc2)OC1`, the IC50 with CCRF-CEM was determined as 30.2 µg/mL (≈ 189 µM); in the experiment with FM3A, 31.4 µg/mL (≈ 196 µM); in the experiment with H9, 38.6 µg/mL (≈ 241 µM); with L1210, 45.8 µg/mL (≈ 286 µM); with MT4, 31.7 µg/mL (≈ 198 µM); in experiment [1] it was 31.2 µg/mL (≈ 195 µM). The IC50 with Raji was 50.1 µg/mL (≈ 313 µM).
For `CC1=CC(=N)C(c2ccccc2)(c2ccccc2)O1`, the IC50 was 29.3 µg/mL (≈ 118 µM) in the experiment with CCRF-CEM; 25.4 µg/mL (≈ 102 µM) in the experiment on FM3A; 30 µg/mL (≈ 120 µM) in the experiment on H9; 24.2 µg/mL (≈ 97.1 µM) in the experiment on L1210; 26.5 µg/mL (≈ 106 µM) with MT4; 25.3 µg/mL (≈ 101 µM) in experiment [1]. In addition, the IC50 in the experiment with Raji is 24 µg/mL (≈ 96.3 µM).
Regarding `CCC1(C)OC(/C(C)=C/COc2ccc3ccc(=O)oc3c2)=CC1=N` (centres undefined), the IC50 in the experiment on CCRF-CEM came out at 3.57 µg/mL (≈ 10.5 µM); in the experiment with FM3A, 14.1 µg/mL (≈ 41.5 µM); in the experiment on H9 it was 2.58 µg/mL (≈ 7.6 µM); in the experiment on L1210, 4.71 µg/mL (≈ 13.9 µM); in the experiment with MT4, 2.65 µg/mL (≈ 7.81 µM); in experiment [1], 3.17 µg/mL (≈ 9.34 µM). Moreover, the IC50 in the experiment with Raji is 17.9 µg/mL (≈ 52.7 µM).
